Target: T1, human recombinant adrenergic α1D receptor (Homo sapiens, UniProt P25100)
T1 construct: expressed in transfected cells; host or cells: HEK-293 cells
T1 sequence (P25100 1-572): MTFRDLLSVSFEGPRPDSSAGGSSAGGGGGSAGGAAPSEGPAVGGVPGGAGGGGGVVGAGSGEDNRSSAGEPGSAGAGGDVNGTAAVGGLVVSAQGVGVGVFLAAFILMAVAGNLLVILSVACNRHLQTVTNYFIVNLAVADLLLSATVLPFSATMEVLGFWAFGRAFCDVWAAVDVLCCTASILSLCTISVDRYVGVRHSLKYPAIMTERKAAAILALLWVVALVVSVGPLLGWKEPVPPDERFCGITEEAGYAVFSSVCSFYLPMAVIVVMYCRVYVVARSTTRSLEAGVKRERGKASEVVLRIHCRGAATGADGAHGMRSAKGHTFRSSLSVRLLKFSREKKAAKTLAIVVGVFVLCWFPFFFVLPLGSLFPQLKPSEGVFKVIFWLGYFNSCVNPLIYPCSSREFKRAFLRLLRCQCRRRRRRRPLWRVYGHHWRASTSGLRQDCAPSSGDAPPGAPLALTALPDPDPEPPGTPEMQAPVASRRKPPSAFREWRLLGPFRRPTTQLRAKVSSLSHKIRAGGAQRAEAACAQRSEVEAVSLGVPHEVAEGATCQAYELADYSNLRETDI
Assay: Adrenergic α1D radioligand binding ([3H]Prozosin)
Conditions: 1 h; read-out: Percent Inhibition of ligand binding Adrenergic (1 μM ligand conc.) α1D
Protocol: To evaluate in radioligand binding assays the activity of compounds of the invention, human recombinant adrenergic a1D receptor expressed in human embryonic kidney (HEK-293) cells (Kenny, B. A. et al. Br. J. Pharmacol. 115(6):981, 1995) in a 50 mM Tris-HCl buffer, pH 7.4, was used. Compounds of invention were incubated with 0.6 nM [^3H]Prozosin for 60 minutes at 25° C. Non-specific binding was estimated in the presence of 10 μM phentolamine. Receptor proteins were filtered and washed, the filters were then counted to determine [^3H]Prozosin specifically bound. Compounds were screened at 1 μM or lower, using 1% DMSO as vehicle. Biochemical assay results are presented as the percent inhibition of specific binding in Table 4. Adrenergic a2A

Going from `COC(=O)Cn1c2c(c3cc(Cl)ccc31)CCN(C)C2` [Compound 54, methyl 2-(6-chloro-2-methyl-3,4-dihydro-1H-pyrido[3,4-b]indol-9(2H)-yl)acetate] to `COC(=O)Cn1c2c(c3cc(C)ccc31)CCN(C)C2` [Compound 21, methyl 2-(1,2,3,4-tetrahydro-2,6-dimethylpyrido[3,4-b]indol-9-yl)acetate], the inhibition at 1 µM falls from 11% to -7%.

Compared with `CN1CCc2c(n(CCC3CCCC3)c3ccc(Cl)cc23)C1` [Compound 35, 6-chloro-9-(2-cyclopentylethyl)-2,3,4,9-tetrahydro-2-methyl-1H-pyrido[3,4-b]indole], `CN1CCc2c(n(CC(=O)NC3CCCCC3)c3ccc(Cl)cc23)C1` [Compound 17, 2-(6-chloro-1,2,3,4-tetrahydro-2-methylpyvrido[3,4-b]indol-9-yl)-N-cyclohexylacetamide] is lower in inhibition at 1 µM: 60% for the first, 18% for the second.

First: CN1CCc2c(n(CC(C)(O)c3ccc(F)cc3)c3ccc(Cl)cc23)C1 (stereo not shown) [Compound 62, 1-(6-chloro-2-methyl-3,4-dihydro-1H-pyrido[3,4-b]indol-9(2H)-yl)-2-(4-fluorophenyl)propan-2-ol]
Second: Cc1ccc2c(c1)c1c(n2CC(C)(O)c2ccc(F)cc2)CN(C)CC1 (stereo not shown) [Compound 61, 1-(2,6-dimethyl-3,4-dihydro-1H-pyrido[3,4-b]indol-9(2H)-yl)-2-(4-fluorophenyl)propan-2-ol]
The inhibition at 1 µM of the first is lower: 44% for the first, 49% for the second.

Going from `CN1CCc2c(n(CC(=O)O)c3ccc(Cl)cc23)C1` [Compound 52, 2-(6-chloro-1,2,3,4-tetrahydro-2-methylpyrido[3,4-b]indol-9-yl)acetic acid] to `Cc1ccc2c(c1)c1c(n2CC(=O)O)CN(C)CC1` [Compound 53, 2-(1,2,3,4-tetrahydro-2,6-dimethylpyrido[3,4-b]indol-9-yl)acetic acid], the inhibition at 1 µM rises from -11% to 6%.

First: CN1CCc2c(n(CC(=O)N(C)C3CCCCC3)c3ccc(Cl)cc23)C1 [Compound 18, 2-(6-chloro-1,2,3,4-tetrahydro-2-methylpyrido[3,4-b]indol-9-yl)-N-cyclohexyl-N-methylacetamide]
Second: CN1CCc2c(n(CC(=O)N(C)C)c3ccc(Cl)cc23)C1 [Compound 16, 2-(6-chloro-1,2,3,4-tetrahydro-2-methylpyrido[3,4-b]indol-9-yl)-N,N-dimethylacetamide]
The inhibition at 1 µM of the first is higher: 21% for the first, 2% for the second.

First: COc1ccc(C(O)Cn2c3c(c4cc(Cl)ccc42)CCN(C)C3)cc1OC (stereo not shown) [Compound 70]
Second: COc1ccc(C(O)Cn2c3c(c4cc(C)ccc42)CCN(C)C3)cc1OC (stereo not shown) [Compound 66]
The inhibition at 1 µM of the first is lower: 44% for the first, 74% for the second.

Compared with `CN1CCc2c(n(CC(=O)Nc3ccc(F)cc3)c3ccc(Cl)cc23)C1` [Compound 15, 2-(6-chloro-1,2,3,4-tetrahydro-2-methylpyrido[3,4-b]indol-9-yl)-N-(4-fluorophenyl)acetamide], `CN1CCc2c(n(CC(O)c3ccccc3F)c3ccc(Cl)cc23)C1` (stereo not shown) [Compound 59, 2-(6-chloro-2-methyl-3,4-dihydro-1H-pyrido[3,4-b]indol-9(2H)-yl)-1-(2-fluorophenyl)ethanol] is higher in inhibition at 1 µM: 5% for the first, 30% for the second.

Compared with `CN1CCc2c(n(CCN3CCCCC3)c3ccc(Cl)cc23)C1` [Compound 34, 6-chloro-2,3,4,9-tetrahydro-2-methyl-9-(2-(piperidin-1-yl)ethyl)-1H-pyrido[3,4-b]indole], `CN1CCc2c(n(CCCC(=O)N3CCCCC3)c3ccc(Cl)cc23)C1` [Compound 44, 4-(6-chloro-1,2,3,4-tetrahydro-2-methylpyrido[3,4-b]indol-9-yl)-1-(piperidin-1-yl)butan-1-one] is higher in inhibition at 1 µM: 56% for the first, 61% for the second.

Going from `Cc1ccc2c(c1)c1c(n2CC(=O)N2CCCCC2)CN(C)CC1` [Compound 57, 2-(2,6-dimethyl-3,4-dihydro-1H-pyrido[3,4-b]indol-9(2H)-yl)-1-(piperidin-1-yl)ethanone] to `Cc1ccc2c(c1)c1c(n2CCC(=O)N2CCCCC2)CN(C)CC1` [Compound 43, 3-(1,2,3,4-tetrahydro-2,6-dimethylpyrido[3,4-b]indol-9-yl)-1-(piperidin-1-yl)propan-1-one], the inhibition at 1 µM falls from 77% to 58%.

Going from `CN1CCc2c(n(CCCc3ccccc3)c3ccc(Cl)cc23)C1` [Compound 29, 6-chloro-2,3,4,9-tetrahydro-2-methyl-9-(3-phenylpropyl)-1H-pyrido[3,4-b]indole] to `Cc1ccc(CCCn2c3c(c4cc(Cl)ccc42)CCN(C)C3)cn1` [Compound 56, 6-chloro-2-methyl-9-(3-(6-methylpyridin-3-yl)propyl)-2,3,4,9-tetrahydro-1H-pyrido[3,4-b]indole], the inhibition at 1 µM falls from 84% to 16%.

First: Cc1ccc(C(O)Cn2c3c(c4cc(C)ccc42)CCN(C)C3)cc1 (stereo not shown) [Compound 72]
Second: Cc1ccc2c(c1)c1c(n2CC(O)c2ccccc2)CN(C)CC1 (stereo not shown) [Compound 67]
The inhibition at 1 µM of the first is higher: 86% for the first, 85% for the second.

Going from `CN1CCc2c(n(CC(=O)N3CCCC3)c3ccc(Cl)cc23)C1` [Compound 40, 2-(6-chloro-1,2,3,4-tetrahydro-2-methylpyrido[3,4-b]indol-9-yl)-1-(pyrrolidin-1-yl)ethanone] to `CN1CCc2c(n(CC(=O)N3CCCCC3)c3ccc(Cl)cc23)C1` [Compound 58, 2-(6-chloro-2-methyl-3,4-dihydro-1H-pyrido[3,4-b]indol-9(2H)-yl)-1-(piperidin-1-yl)ethanone], the inhibition at 1 µM rises from 3% to 19%.

Going from `CN1CCc2c(n(CC(=O)N3CCNCC3)c3ccc(Cl)cc23)C1` [Compound 55, 2-(6-chloro-2-methyl-3,4-dihydro-1H-pyrido[3,4-b]indol-9(2H)-yl)-1-(piperazin-1-yl)ethanone] to `CC(C)CCN(C)C(=O)Cn1c2c(c3cc(Cl)ccc31)CCN(C)C2` [Compound 14, 2-(6-chloro-1,2,3,4-tetrahydro-2-methylpyrido[3,4-b]indol-9-yl)-N-isopentyl-N-methylacetamide], the inhibition at 1 µM rises from 10% to 33%.

Compared with `CN1CCc2c(n(CC(O)c3ccccc3)c3ccc(Cl)cc23)C1` (stereo not shown) [Compound 71], `Cc1ccc2c(c1)c1c(n2CC(O)c2ccccc2F)CN(C)CC1` (stereo not shown) [Compound 60, 2-(2,6-dimethyl-3,4-dihydro-1H-pyrido[3,4-b]indol-9(2H)-yl)-1-(2-fluorophenyl)ethanol] is lower in inhibition at 1 µM: 58% for the first, 29% for the second.

Going from `Cc1ccc2c(c1)c1c(n2/C=C/c2ccccc2)CN(C)CC1` [Compound 92] to `Cc1ccc2c(c1)c1c(n2CCc2ccc(C(F)(F)F)nc2)CN(C)CC1` [Compound 5, 9-(2-(6-(trifluoromethyl)pyridin-3-yl)ethyl)-2,3,4,9-tetrahydro-2,6-dimethyl-1H-pyrido[3,4-b]indole], the inhibition at 1 µM falls from 97% to 64%.

Same assay, conditions: compound concentration 1 μM; read-out: Percentage inhibition of ligand binding to Adrenergic α1D receptor

`Cc1ccc2c(c1)c1c(n2/C=C/c2ccccc2)CN(C)CC1` [Compound 92] was tested, and the inhibition at 1 µM was 97%.
